Active and inactive are the calls of the source. The rule behind the calls is not given here.
How the values were obtained:
[1] = tested on: Mus musculus; experiment: In vivo inhibition of IDO1 in po dosed LPS-induced C57BL/6 mouse assessed as reduction in plasma kynurenine levels measured after 2 to 48 hrs by LC/MS/MS analysis; assay type: functional
[2] = tested on: Mus musculus; experiment: Reduction in kynurenine levels in tumor of Balb/C mouse implanted with mouse CT26 cells at 50 mg/kg, po bid for 4 days measured 2 hrs post last dose by LC/MS/MS analysis relative to control; assay type: functional; set-up: scale not given: the % may be the effect or the level left
[3] = tested on: Mus musculus; experiment: Reduction in plasma kynurenine levels in Balb/C mouse implanted with mouse CT26 cells at 50 mg/kg, po bid for 4 days measured 2 hrs post last dose by LC/MS/MS analysis relative to control; assay type: functional; set-up: scale not given: the % may be the effect or the level left
[4] = molecular target: T1, Indoleamine 2,3-dioxygenase 1 (Homo sapiens, UniProt P14902); experiment: Inhibition of recombinant human N-terminal His-tagged IDO1 (1 to 403 residues) expressed in Escherichia coli assessed as reduction in kynurenine formation using tryptophan as substrate measured by LC/MS/MS analysis
T1 sequence (P14902 whole entry, the tested form may be a part): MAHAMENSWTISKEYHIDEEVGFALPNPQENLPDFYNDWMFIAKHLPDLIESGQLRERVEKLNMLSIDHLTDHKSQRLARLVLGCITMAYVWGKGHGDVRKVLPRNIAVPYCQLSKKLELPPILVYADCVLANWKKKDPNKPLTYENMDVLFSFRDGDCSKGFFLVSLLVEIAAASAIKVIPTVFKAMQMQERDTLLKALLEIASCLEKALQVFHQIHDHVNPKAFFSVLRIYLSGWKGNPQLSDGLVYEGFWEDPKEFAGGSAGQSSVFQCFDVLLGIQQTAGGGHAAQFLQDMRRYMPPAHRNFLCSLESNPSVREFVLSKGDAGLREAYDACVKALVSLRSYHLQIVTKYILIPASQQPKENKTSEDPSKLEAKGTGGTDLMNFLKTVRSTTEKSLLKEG

[5] = molecular target: Tryptophan 2,3-dioxygenase (Homo sapiens, UniProt P48775); experiment: Inhibition of recombinant human TDO2 expressed in CHOK1 cells assessed as reduction in kynurenine formation using L-tryptophan as substrate measured after 2 hrs by LC/MS/MS analysis; assay type: cell-based
Chain of Tryptophan 2,3-dioxygenase (P48775 whole entry): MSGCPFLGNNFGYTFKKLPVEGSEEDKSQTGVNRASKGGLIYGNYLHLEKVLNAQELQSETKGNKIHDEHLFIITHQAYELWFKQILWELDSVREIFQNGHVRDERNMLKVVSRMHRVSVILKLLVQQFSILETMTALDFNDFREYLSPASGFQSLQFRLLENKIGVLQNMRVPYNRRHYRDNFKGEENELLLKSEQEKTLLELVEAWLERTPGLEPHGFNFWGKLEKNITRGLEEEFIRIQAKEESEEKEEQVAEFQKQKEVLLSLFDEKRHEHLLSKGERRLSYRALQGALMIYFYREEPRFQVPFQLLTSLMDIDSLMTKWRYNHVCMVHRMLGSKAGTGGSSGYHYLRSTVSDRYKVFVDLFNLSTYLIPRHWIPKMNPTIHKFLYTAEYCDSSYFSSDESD

[6] = molecular target: T1, Indoleamine 2,3-dioxygenase 1; experiment: Inhibition of IDO1 in IFNgamma-stimulated human HeLa cells assessed as reduction in kynurenine formation using L-tryptophan as substrate measured after 15 mins by UV-vis HPLC analysis
[7] = tested on: CT26; experiment: Antitumor activity against mouse CT26 cells implanted in Balb/C mouse assessed as reduction in tumor growth at 75 mg/kg, po bid measured on day 1,4,6,9,11 and 14 relative to control; assay type: functional; set-up: scale not given: the % may be the effect or the level left
[8] = tested on: Mus musculus; experiment: Reduction in plasma kynurenine levels in Balb/C mouse implanted with mouse CT26 cells at 75 mg/kg, po bid measured after 14 days by LC/MS/MS analysis relative to control; assay type: functional; set-up: scale not given: the % may be the effect or the level left
[9] = tested on: CT26; experiment: Synergistic antitumor activity against mouse CT26 cells implanted in Balb/c mouse assessed as reduction in tumor volume at 75 mg/kg, po bid for 35 days starting from day 5 post doxorubucin administration followed by second doxorubicin dosing at 3 weeks post doxorubicin dose measured 4 hrs post last dose; assay type: functional, organism-based
[10] = tested on: CT26; experiment: Synergistic antitumor activity against mouse CT26 cells implanted in Balb/c mouse assessed as reduction in time of tumor progression at 75 mg/kg, po bid for 35 days starting from day 5 post doxorubucin administration followed by second doxorubicin dosing at 3 weeks post doxorubicin dose; assay type: functional, organism-based
[11] = Ratio of drug level in brain to plasma in Sprague-Dawley rat at 10 mg/kg, iv administered as single dose measured after 0.5 hrs by LC/MS/MS analysis; assay type: ADME, organism-based; conditions: brain and plasma, read-out: BPR
[12] = Ratio of drug level in brain to plasma in Sprague-Dawley rat at 10 mg/kg, iv administered as single dose measured after 1 hr by LC/MS/MS analysis; assay type: ADME, organism-based; conditions: brain and plasma, read-out: BPR
[13] = Ratio of drug level in brain to plasma in Sprague-Dawley rat at 10 mg/kg, iv administered as single dose measured after 3 hrs by LC/MS/MS analysis; assay type: ADME, organism-based; conditions: brain and plasma, read-out: BPR
[14] = tested on: CT26; experiment: Antitumor activity against mouse CT26 cells implanted in Balb/C mouse assessed as reduction in tumor growth at 50 mg/kg, po bid measured on day 1,4,6,9,11 and 14 relative to control; assay type: functional; set-up: scale not given: the % may be the effect or the level left
[15] = tested on: Mus musculus; experiment: Reduction in plasma kynurenine levels in Balb/C mouse implanted with mouse CT26 cells at 50 mg/kg, po bid measured after 14 days by LC/MS/MS analysis relative to control; assay type: functional; set-up: scale not given: the % may be the effect or the level left
[16] = tested on: CT26; experiment: Synergistic antitumor activity against mouse CT26 cells implanted in Balb/c mouse assessed as reduction in tumor volume at 50 mg/kg, po bid for 35 days starting from day 5 post doxorubucin administration followed by second doxorubicin dosing at 3 weeks post doxorubucin dose measured 4 hrs post last dose; assay type: functional, organism-based
[17] = tested on: CT26; experiment: Synergistic antitumor activity against mouse CT26 cells implanted in Balb/c mouse assessed as reduction in time of tumor progression at 50 mg/kg, po bid for 35 days starting from day 5 post doxorubucin administration followed by second doxorubicin dosing at 3 weeks post doxorubucin dose; assay type: functional, organism-based
[18] = tested on: CT26; experiment: Antitumor activity against mouse CT26 cells implanted in Balb/C mouse assessed as reduction in tumor growth at 60 mg/kg, po bid measured on day 1,4,6,9,11 and 14 relative to control; assay type: functional; set-up: scale not given: the % may be the effect or the level left
[19] = tested on: Mus musculus; experiment: Reduction in plasma kynurenine levels in Balb/C mouse implanted with mouse CT26 cells at 60 mg/kg, po bid measured after 14 days by LC/MS/MS analysis relative to control; assay type: functional; set-up: scale not given: the % may be the effect or the level left
[20] = tested on: CT26; experiment: Antitumor activity against mouse CT26 cells implanted in Balb/C mouse assessed as reduction in tumor growth at 40 mg/kg, po bid measured on day 1,4,6,9,11 and 14; assay type: functional, organism-based
[21] = tested on: Mus musculus; experiment: Reduction in plasma kynurenine levels in Balb/C mouse implanted with mouse CT26 cells at 40 mg/kg, po bid measured after 14 days by LC/MS/MS analysis relative to control; assay type: functional; set-up: scale not given: the % may be the effect or the level left

Structure (SMILES)	inhibition (INH) [1]	Activity [2]	Activity [3]	also measured
Cc1cc(-c2nccc3c(Nc4ccc(F)c(Cl)c4)c(N)oc23)cc(C)n1	>50%	>=25 - 50%	>=25 - 50%	
Nc1oc2c(-c3ccccc3)nc(Oc3ccccc3)cc2c1Nc1ccc(F)c(Cl)c1				IC50 [4]: > 1000 nM; IC50 [5]: > 2000 nM
CNC(=O)c1cc(-c2nccc3c(Nc4ccc(F)c(Cl)c4)c(N)oc23)ccn1		>50%	>50%	
CCOC(=O)Nc1oc2cnccc2c1Nc1ccc(F)c(Cl)c1				IC50 [4]: > 1000 nM; IC50 [5]: > 2000 nM
CCOC(=O)Nc1oc2c(C#N)nccc2c1N(C(=O)OCC)c1ccc(F)c(Cl)c1		<25%	>=25 - 50%	
Cc1cc(-c2nccc3c(Nc4cccc(C(F)(F)F)c4)c(N)oc23)ccn1	>50%			
N#Cc1nccc2c(Nc3ccc(F)c(Cl)c3)c(N)oc12	>50%	<25%	>=25 - 50%	
C#Cc1cccc(Nc2c(N)oc3c(-c4ccccc4)nccc23)c1	>50%			
Cc1cc(-c2nccc3c(Nc4ccc(F)c(F)c4)c(N)oc23)ccn1	>50%	>50%	>50%	
Nc1sc2c(-c3ccncc3)cccc2c1Nc1ccc(F)c(Cl)c1	>=25 - 50%			
Nc1oc2c(-c3ccnc(N4CCOCC4)c3)nccc2c1Nc1ccc(F)c(Cl)c1	>50%	>=25 - 50%	>50%	
Nc1oc2c(-c3ccc(F)c(F)c3)nccc2c1Nc1ccc(F)c(Cl)c1	>=25 - 50%			
Nc1oc2c(-c3ccccc3Cl)nccc2c1Nc1ccc(F)c(Cl)c1	>=25 - 50%			IC50 [6]: < 200 nM; IC50 [5]: < 500 nM
Nc1oc2cnc(F)cc2c1Nc1ccc(F)c(Cl)c1	>50%	<25%	>=25 - 50%	
COc1ccc(-c2nccc3c(Nc4ccc(F)c(Cl)c4)c(N)oc23)cc1	>50%			
Nc1oc2c(-c3ccncc3)nccc2c1Nc1ccc(F)c(Cl)c1	>50%			Activity [7]: 26 - 38%; Activity [8]: 40 - 50%; Activity [9]: Active; Activity [10]: Active; Kp at 0.5 h [11]: 0.67; Kp at 1 h [12]: 0.47; Kp at 3 h [13]: 0.64
Nc1oc2c(-c3ccncc3)nccc2c1Nc1ccc(F)c(C(F)(F)F)c1	>50%			
Nc1oc2c(-c3ccncc3)nc(F)cc2c1Nc1ccc(F)c(F)c1	>50%	>50%	>=25 - 50%	
Nc1oc2c(-c3ccncc3)nccc2c1Nc1ccc(F)c(F)c1	>50%	>50%	>50%	Activity [14]: 26 - 38%; Activity [15]: 40 - 50%; Activity [16]: Active; Activity [17]: Active
Nc1oc2c(Cl)nccc2c1Nc1ccc(F)c(Cl)c1	>50%	>=25 - 50%	>=25 - 50%	Activity [18]: 26 - 38%; Activity [19]: 40 - 50%
Nc1sc2ccccc2c1Nc1cccc(Cl)c1	>=25 - 50%			
Nc1oc2c(-c3ccncc3)nc(F)cc2c1Nc1ccc(F)c(Cl)c1	>50%	>=25 - 50%	<25%	

Structure (SMILES)	inhibition (INH) [1]	Activity [2]	Activity [3]	also measured
Nc1oc2c(-c3ccc(F)c(F)c3F)nccc2c1Nc1ccc(F)c(Cl)c1	>50%			
N#Cc1nccc2c(Nc3ccc(F)c(C(F)(F)F)c3)c(N)oc12	>50%	<25%	>=25 - 50%	
Nc1oc2cnccc2c1Nc1ccc(F)c(Cl)c1	>50%			Activity [20]: Active; Activity [21]: 40 - 50%; Kp at 0.5 h [11]: 9.8; Kp at 1 h [12]: 10.7; Kp at 3 h [13]: 6
COCCNC(=O)c1ccc(-c2nccc3c(Nc4ccc(F)c(Cl)c4)c(N)oc23)cc1	>50%			
C#Cc1cccc(Nc2c(N)oc3c(CC)nccc23)c1	>50%			
COc1ccccc1-c1nccc2c(Nc3ccc(F)c(Cl)c3)c(N)oc12		<25%	<25%	
Nc1sc2ccccc2c1Nc1ccc(F)c(Cl)c1	>=25 - 50%			
Cc1cc(-c2nccc3c(Nc4ccc(F)c(Cl)c4)c(N)oc23)ccn1	>50%	>50%	>50%	
Nc1oc2cnccc2c1Nc1ccc(F)c(Br)c1	>50%			
Nc1oc2cnccc2c1Nc1ccc(F)c(F)c1	>50%			IC50 [4]: 200 to 1000 nM; IC50 [5]: 500 to 2000 nM
Nc1oc2c(-c3ccc(F)cc3)nccc2c1Nc1ccc(F)c(Cl)c1	>50%			
CCOC(=O)Nc1oc2cnccc2c1N(C(=O)OCC)c1ccc(F)c(Cl)c1	>50%	>50%	>50%	
Nc1sc2cnccc2c1Nc1ccc(F)c(Cl)c1	<25%			
Nc1sc2ccccc2c1Nc1ccccc1				IC50 [4]: 200 to 1000 nM; IC50 [5]: < 500 nM
Nc1oc2c(F)nc(F)cc2c1Nc1ccc(F)c(Cl)c1	>=25 - 50%	>50%	>=25 - 50%	
O=C(Nc1oc2cnccc2c1N(C(=O)OCc1ccccc1)c1ccc(F)c(Cl)c1)OCc1ccccc1	>50%			
N#Cc1ccc(-c2nccc3c(Nc4ccc(F)c(Cl)c4)c(N)oc23)cc1	>50%			
Nc1oc2cnc(Cl)cc2c1Nc1ccc(F)c(Cl)c1	>50%			
Nc1oc2c(-c3cccc4ccccc34)nccc2c1Nc1ccc(F)c(Cl)c1	>=25 - 50%	>50%	>50%	
Nc1oc2cnc(F)cc2c1Nc1ccc(F)c(C(F)(F)F)c1				IC50 [6]: < 200 nM; IC50 [5]: < 500 nM
Cc1cc(-c2nccc3c(Nc4ccc(F)cc4)c(N)oc23)ccn1	>50%			
